Laboratory results as given in ChEMBL document CHEMBL1157545, “Synthesis and cancer cell cytotoxicity of substituted xanthenes” (Bioorg Med Chem, 2010).
Active and inactive are the calls of the source. The calls are words filed in the database; no cut-off is given here.

Key:
[1] = system: DU-145; test: Cytotoxicity against human DU145 cells after 48 hrs; type: functional, cell-based; details: DU-145, 48 h
[2] = system: MCF7; test: Cytotoxicity against human MCF7 cells after 48 hrs; type: functional, cell-based; details: MCF7, 48 h
[3] = system: HeLa; test: Cytotoxicity against human HeLa cells after 48 hrs; type: functional, cell-based
[4] = system: Nucleic Acid; test: Binding affinity to DNA assessed as DNA intercalation at 50 uM; type: nucleic-acid assay
[5] = system: Nucleic Acid; test: Binding affinity to DNA assessed as DNA intercalation at 250 uM; type: nucleic-acid assay
[6] = biological target: DNA topoisomerase 2-alpha (Homo sapiens) (UniProt P11388); test: Inhibition of human DNA topoisomerase 2 at 50 uM by DNA relaxation assay
Sequence of DNA topoisomerase 2-alpha (Homo sapiens) (P11388 whole entry): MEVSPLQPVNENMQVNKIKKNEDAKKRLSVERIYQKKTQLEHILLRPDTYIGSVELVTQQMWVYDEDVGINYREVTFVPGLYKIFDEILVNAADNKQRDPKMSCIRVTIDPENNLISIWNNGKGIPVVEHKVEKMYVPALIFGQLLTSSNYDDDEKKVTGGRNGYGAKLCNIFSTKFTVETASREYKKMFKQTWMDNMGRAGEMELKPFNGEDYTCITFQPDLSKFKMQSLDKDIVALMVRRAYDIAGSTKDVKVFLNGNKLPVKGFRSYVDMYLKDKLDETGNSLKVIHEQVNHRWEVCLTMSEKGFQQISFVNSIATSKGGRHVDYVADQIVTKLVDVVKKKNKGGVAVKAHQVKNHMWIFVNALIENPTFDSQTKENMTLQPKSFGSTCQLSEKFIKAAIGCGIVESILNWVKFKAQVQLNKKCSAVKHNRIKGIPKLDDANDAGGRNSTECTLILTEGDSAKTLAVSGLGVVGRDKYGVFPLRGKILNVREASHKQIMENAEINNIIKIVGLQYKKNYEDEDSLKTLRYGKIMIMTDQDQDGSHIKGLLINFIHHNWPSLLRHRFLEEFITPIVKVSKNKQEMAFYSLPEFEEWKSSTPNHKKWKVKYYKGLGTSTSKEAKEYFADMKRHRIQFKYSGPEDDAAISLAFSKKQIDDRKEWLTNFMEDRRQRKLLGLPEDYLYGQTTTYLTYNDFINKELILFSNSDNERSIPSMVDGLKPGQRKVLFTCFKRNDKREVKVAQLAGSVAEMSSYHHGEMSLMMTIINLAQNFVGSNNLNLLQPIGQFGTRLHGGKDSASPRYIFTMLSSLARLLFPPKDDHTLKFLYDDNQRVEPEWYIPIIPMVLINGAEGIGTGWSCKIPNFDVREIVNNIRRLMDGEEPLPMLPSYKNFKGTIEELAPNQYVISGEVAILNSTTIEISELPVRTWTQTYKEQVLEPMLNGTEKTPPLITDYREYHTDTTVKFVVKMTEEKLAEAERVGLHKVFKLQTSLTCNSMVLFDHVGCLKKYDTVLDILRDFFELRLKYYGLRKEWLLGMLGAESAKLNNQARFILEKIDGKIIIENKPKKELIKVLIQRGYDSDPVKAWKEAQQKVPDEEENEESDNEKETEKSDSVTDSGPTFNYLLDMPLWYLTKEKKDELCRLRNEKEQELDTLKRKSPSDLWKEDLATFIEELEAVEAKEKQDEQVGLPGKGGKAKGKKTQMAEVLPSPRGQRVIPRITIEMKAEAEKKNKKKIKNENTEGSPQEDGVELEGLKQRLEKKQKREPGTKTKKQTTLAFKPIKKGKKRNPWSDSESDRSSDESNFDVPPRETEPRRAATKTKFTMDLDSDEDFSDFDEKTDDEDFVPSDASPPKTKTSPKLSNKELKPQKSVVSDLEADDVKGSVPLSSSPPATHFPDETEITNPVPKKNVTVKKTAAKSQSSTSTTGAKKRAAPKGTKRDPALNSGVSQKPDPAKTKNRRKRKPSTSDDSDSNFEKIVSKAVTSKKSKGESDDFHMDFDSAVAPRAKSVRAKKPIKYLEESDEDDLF

[7] = biological target: DNA topoisomerase 2-alpha (Homo sapiens) (UniProt P11388); test: Inhibition of human DNA topoisomerase 2 at 250 uM by DNA relaxation assay

| SMILES | IC50 [1] [µM] | IC50 [2] [µM] | IC50 [3] [µM] | Activity [4] | Activity [5] | inhibition [6] | inhibition [7] |
| --- | --- | --- | --- | --- | --- | --- | --- |
| C=CC1(O)c2ccc(C(=O)N3CCN(C)CC3)cc2Oc2ccc(Cl)cc21 (configuration not stated) | 208 | > 500 | 285 | inactive | inactive |  |  |
| COc1cccc(C2(O)c3ccccc3Oc3cc(C(=O)N4CCOCC4)ccc32)c1 (configuration not stated) | 163 | 151 | 153 | inactive | inactive |  |  |
| CN1CCN(C(=O)c2ccc3c(c2)Oc2ccccc2C3(C)O)CC1 (configuration not stated) | 119 | 115 | 121 | inactive | inactive |  |  |
| CN1CCN(C(=O)c2ccc3c(c2)Oc2ccc(Cl)cc2C3(C)O)CC1 (configuration not stated) | 241 | 160 | 264 | inactive | inactive |  |  |
| C=CC1(O)c2ccc(C(=O)N3CCN(C)CC3)cc2Oc2ccc(F)cc21 (configuration not stated) | > 300 | 254 | 230 | inactive | inactive | inactive | inactive |
| CN1CCN(C(=O)c2ccc3c(c2)Oc2ccc(F)cc2C3(O)c2ccccc2)CC1 (configuration not stated) | 84 | 62 | 109 | inactive | inactive | inactive | inactive |
| CCC1(O)c2ccc(C(=O)N3CCN(C)CC3)cc2Oc2ccc(F)cc21 (configuration not stated) | 139 | 138 | 127 | inactive | inactive |  |  |
| O=c1c2ccccc2oc2ccccc12 [XANTHONE] | > 500 | > 500 | > 500 | inactive | inactive |  |  |
| CN1CCN(C(=O)c2ccc3c(c2)Oc2ccccc2C3(O)c2ccccc2)CC1 (configuration not stated) | > 300 | 169 | 170 | inactive | inactive |  |  |
| O=C(c1ccc2c(c1)Oc1ccccc1C2(O)c1ccccc1)N1CCOCC1 (configuration not stated) | 125 | 134 | 120 | inactive | inactive |  |  |
| CCC1(O)c2ccc(C(=O)N3CCN(C)CC3)cc2Oc2ccc(Cl)cc21 (configuration not stated) | 145 | 180 | 153 | inactive | inactive |  |  |
| COc1cccc(C2(O)c3ccccc3Oc3cc(C(=O)N(C)C)ccc32)c1 (configuration not stated) | 36 | 50 | 44 | inactive | inactive | inactive | inactive |
| COc1cccc(C2(O)c3ccccc3Oc3cc(C(=O)N4CCN(C)CC4)ccc32)c1 (configuration not stated) | 139 | 125 | 111 | inactive | inactive |  |  |
| CN(C)C(=O)c1ccc2c(c1)Oc1ccccc1C2(O)c1ccccc1 (configuration not stated) | 59 | 62 | 67 | inactive | inactive | inactive | inactive |
| CCC1(O)c2ccccc2Oc2cc(C(=O)N3CCN(C)CC3)ccc21 (configuration not stated) | 195 | 218 | 213 | inactive | inactive |  |  |
| OC1(c2ccccc2)c2ccccc2Oc2ccccc21 | > 500 | > 500 | > 500 | inactive | inactive |  |  |
| CN1CCN(C(=O)c2ccc3c(c2)Oc2ccc(F)cc2C3(C)O)CC1 (configuration not stated) | > 300 | 208 | > 300 | inactive | inactive |  |  |
| COc1cccc(C2(O)c3ccccc3Oc3ccccc32)c1 | 59 | 82 | 85 | inactive | inactive | inactive | inactive |
| COc1cccc(C2(O)c3ccc(C(=O)N4CCN(C)CC4)cc3Oc3ccc(F)cc32)c1 (configuration not stated) | 55 | 46 | 85 | inactive | inactive | inactive | inactive |
| C=CC1(O)c2ccccc2Oc2cc(C(=O)N3CCN(C)CC3)ccc21 (configuration not stated) | 63 | 74 | 74 | inactive | inactive |  |  |
| COc1cccc(C2(O)c3ccc(C(=O)N4CCN(C)CC4)cc3Oc3ccc(Cl)cc32)c1 (configuration not stated) | 92 | 72 | 94 | inactive | inactive |  |  |
| CN1CCN(C(=O)c2ccc3c(c2)Oc2ccc(Cl)cc2C3(O)c2ccccc2)CC1 (configuration not stated) | 117 | 95 | 158 | inactive | inactive |  |  |
